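Tested at 5 concentrations; 48 h exposure; 96-well plates; endpoints linearly interpolated, else capped at highest concentration. The concentration for 50% growth inhibition is given as GI50.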 The source made the active and inactive calls. No stated cut-off is given here; in the data, active = GI50 up to about 1.1 µM and inactive = higher.
Tests used:
Assay in all cases: NCI-60 cell line screen, 48 h
ACHN = test system: ACHN
CCRF-CEM = test system: CCRF-CEM
DMS-114 = test system: DMS-114
EKVX = test system: EKVX
IGROV-1 = test system: IGROV-1
LOX IMVI = test system: LOX IMVI
Malme-3M = test system: Malme-3M
NCI-H226 = test system: NCI-H226
OVCAR-5 = test system: OVCAR-5
OVCAR-8 = test system: OVCAR-8
SF-295 = test system: SF-295
SK-OV-3 = test system: SK-OV-3
SR = test system: SR
TK-10 = test system: TK-10
HT-29 = test system: HT-29
BT-549 = test system: BT-549
Hs-578T = test system: Hs-578T
MCF7 = test system: MCF7
MDA-MB-231 = test system: MDA-MB-231
MDA-MB-435 = test system: MDA-MB-435

Structure (SMILES) | GI50 (ACHN) | GI50 (CCRF-CEM) | GI50 (DMS-114) | GI50 (EKVX) | GI50 (IGROV-1) | GI50 (LOX IMVI) | GI50 (Malme-3M) | GI50 (NCI-H226) | GI50 (OVCAR-5) | GI50 (OVCAR-8) | GI50 (SF-295) | GI50 (SK-OV-3) | GI50 (SR) | GI50 (TK-10) | GI50 (HT-29) | GI50 (BT-549) | GI50 (Hs-578T) | GI50 (MCF7) | GI50 (MDA-MB-231) | GI50 (MDA-MB-435)
COc1ccc(N2C(=O)c3c(c4[nH]c5ccccc5c4c4ccc(C(C)(C)C)cc34)C2=O)cc1 | 46.3 µM (inactive) | 21.3 µM (inactive) | > 100 µM (inactive) | 64 µM (inactive) | > 100 µM (inactive) | > 100 µM (inactive) | 83 µM (inactive) | 35.8 µM (inactive) | > 100 µM (inactive) | 22.5 µM (inactive) | 31.8 µM (inactive) | 42.1 µM (inactive) | 21.2 µM (inactive) | 51.4 µM (inactive) | – | – | – | – | – | –
CCCCCC1CC=CC(NC(=O)OCc2ccccc2)C1/C=C/CCCC1OCCO1 (stereo not drawn) | 24.1 µM (inactive) | 47.5 µM (inactive) | 21.4 µM (inactive) | 96.6 µM (inactive) | > 100 µM (inactive) | 57.7 µM (inactive) | 50.6 µM (inactive) | 30.9 µM (inactive) | > 53.8 µM (inactive) | 73.6 µM (inactive) | 66.5 µM (inactive) | > 100 µM (inactive) | – | 97.7 µM (inactive) | > 100 µM (inactive) | – | – | – | – | –
COc1cc2c(c(OC)c1OC)-c1ccc(SC)c(=O)cc1C(CO)C2 (stereo not drawn) | 0.513 µM (active) | 0.0891 µM (active) | 0.0791 µM (active) | 0.603 µM (active) | 0.169 µM (active) | 0.22 µM (active) | 0.0811 µM (active) | 0.279 µM (active) | 0.431 µM (active) | 0.188 µM (active) | 0.175 µM (active) | 0.109 µM (active) | 0.0203 µM (active) | – | 0.134 µM (active) | – | – | – | – | –
C=CCOC1=C2CC[C@H](O)[C@@]2(C)CCC1=O | > 100 µM (inactive) | > 100 µM (inactive) | > 100 µM (inactive) | > 100 µM (inactive) | > 100 µM (inactive) | > 100 µM (inactive) | > 100 µM (inactive) | > 100 µM (inactive) | > 100 µM (inactive) | > 100 µM (inactive) | > 100 µM (inactive) | > 100 µM (inactive) | > 100 µM (inactive) | > 100 µM (inactive) | > 100 µM (inactive) | – | – | – | – | –
Nc1nc(SCc2ccc([N+](=O)[O-])cc2)nc2c1ncn2C1OC(CO)C(O)C1O (stereo not drawn) | > 100 µM (inactive) | > 100 µM (inactive) | > 100 µM (inactive) | > 100 µM (inactive) | > 100 µM (inactive) | > 100 µM (inactive) | > 100 µM (inactive) | > 100 µM (inactive) | > 100 µM (inactive) | > 100 µM (inactive) | > 100 µM (inactive) | – | > 100 µM (inactive) | > 100 µM (inactive) | > 100 µM (inactive) | – | – | – | – | –
Cc1nc(-n2nc(-c3ccccc3)cc2-c2ccccc2)sc1C(=O)/C=C/c1ccc(Cl)cc1 | 20.7 µM (inactive) | 17.3 µM (inactive) | 11.4 µM (inactive) | 13.4 µM (inactive) | 27.7 µM (inactive) | 13.9 µM (inactive) | 22.4 µM (inactive) | 16 µM (inactive) | 34.8 µM (inactive) | 24.8 µM (inactive) | 15.3 µM (inactive) | 28.1 µM (inactive) | – | 38.1 µM (inactive) | 14.4 µM (inactive) | – | – | – | – | –
CCOC(OC1=C(C#N)CCC1)C(CC)[Se]c1ccccc1 (stereo not drawn) | 29.8 µM (inactive) | 15.6 µM (inactive) | 3.1 µM (inactive) | 35.7 µM (inactive) | 24.9 µM (inactive) | 4.5 µM (inactive) | 11.4 µM (inactive) | 19.2 µM (inactive) | 22.7 µM (inactive) | 23.7 µM (inactive) | 16.6 µM (inactive) | > 100 µM (inactive) | 7.19 µM (inactive) | > 100 µM (inactive) | 26.4 µM (inactive) | – | – | – | – | –
O=CC(O)C(O)C(O)COc1cc(CO)cc2c1C(=O)c1ccccc1C2=O (stereo not drawn) | > 31.6 µM (inactive) | > 100 µM (inactive) | > 89.5 µM (inactive) | > 100 µM (inactive) | > 100 µM (inactive) | 99.1 µM (inactive) | 98.9 µM (inactive) | > 100 µM (inactive) | > 100 µM (inactive) | > 100 µM (inactive) | > 100 µM (inactive) | > 100 µM (inactive) | > 88.3 µM (inactive) | > 100 µM (inactive) | > 100 µM (inactive) | – | – | – | – | –
[N-]=[N+]=NC(c1cn(C2CC(O)C(CO)O2)c(=O)[nH]c1=O)C(I)I (stereo not drawn) | > 100 µM (inactive) | > 100 µM (inactive) | > 100 µM (inactive) | > 100 µM (inactive) | 87.7 µM (inactive) | > 100 µM (inactive) | > 100 µM (inactive) | 9.55 µM (inactive) | > 100 µM (inactive) | > 100 µM (inactive) | > 100 µM (inactive) | > 100 µM (inactive) | > 100 µM (inactive) | > 100 µM (inactive) | > 100 µM (inactive) | – | – | – | – | –
Cc1ccc(NCCN(C)C)c2c(=O)c3cc(O)ccc3sc12 | 1 µM (active) | 0.284 µM (active) | 11.7 µM (inactive) | 12.4 µM (inactive) | 4.47 µM (inactive) | 1.05 µM (active) | 5.28 µM (inactive) | 4.48 µM (inactive) | 15.3 µM (inactive) | 2.44 µM (inactive) | 5.27 µM (inactive) | 3.33 µM (inactive) | 0.241 µM (active) | 17.6 µM (inactive) | 2.49 µM (inactive) | 5.4 µM (inactive) | 0.933 µM (active) | 0.177 µM (active) | 1.87 µM (inactive) | 1.53 µM (inactive)
CCOC(=O)C1Oc2ccc([N+](=O)[O-])cc2C1(C)O (stereo not drawn) | > 100 µM (inactive) | > 100 µM (inactive) | > 100 µM (inactive) | > 100 µM (inactive) | > 100 µM (inactive) | > 100 µM (inactive) | > 100 µM (inactive) | > 100 µM (inactive) | > 100 µM (inactive) | > 100 µM (inactive) | > 100 µM (inactive) | > 100 µM (inactive) | > 100 µM (inactive) | > 100 µM (inactive) | > 100 µM (inactive) | – | – | – | – | –
CC(=O)c1cccc(NC(=O)C(=O)NNc2nnc(S)n2N)c1 | 7.33 µM (inactive) | 3.48 µM (inactive) | 1.85 µM (inactive) | 14.2 µM (inactive) | 8.61 µM (inactive) | 1.64 µM (inactive) | 1.93 µM (inactive) | 12.2 µM (inactive) | 17.3 µM (inactive) | 5.46 µM (inactive) | 4.14 µM (inactive) | 20.5 µM (inactive) | 3.61 µM (inactive) | 25.9 µM (inactive) | 9.4 µM (inactive) | 2.34 µM (inactive) | 2 µM (inactive) | 4.27 µM (inactive) | – | –
CN(C)C(=N)NC(N)=S | > 100 µM (inactive) | – | > 100 µM (inactive) | > 100 µM (inactive) | > 100 µM (inactive) | > 100 µM (inactive) | > 100 µM (inactive) | > 100 µM (inactive) | > 100 µM (inactive) | > 100 µM (inactive) | > 100 µM (inactive) | > 100 µM (inactive) | > 100 µM (inactive) | > 100 µM (inactive) | > 100 µM (inactive) | – | – | – | – | –
O=c1[nH]c2c(nc1NC13CC4CC(CC(C4)C1)C3)c(=O)oc1ccccc12 | > 100 µM (inactive) | > 100 µM (inactive) | > 100 µM (inactive) | > 100 µM (inactive) | > 100 µM (inactive) | 31.6 µM (inactive) | > 100 µM (inactive) | 27.9 µM (inactive) | > 100 µM (inactive) | 32 µM (inactive) | – | > 100 µM (inactive) | > 100 µM (inactive) | > 100 µM (inactive) | > 100 µM (inactive) | – | – | – | – | –
C=CC/C=C/C/C=C/CCCCCCCc1cccc(O)c1C(=O)O | 44.2 µM (inactive) | 30.3 µM (inactive) | > 100 µM (inactive) | 49 µM (inactive) | 33.6 µM (inactive) | 44.7 µM (inactive) | 47.6 µM (inactive) | – | > 100 µM (inactive) | > 100 µM (inactive) | > 100 µM (inactive) | 25.2 µM (inactive) | > 100 µM (inactive) | 54.7 µM (inactive) | 48.8 µM (inactive) | – | – | – | – | –
Cn1ncc(=S)[nH]c1=S | > 100 µM (inactive) | > 100 µM (inactive) | > 100 µM (inactive) | > 100 µM (inactive) | > 100 µM (inactive) | > 100 µM (inactive) | > 100 µM (inactive) | > 100 µM (inactive) | > 100 µM (inactive) | > 100 µM (inactive) | > 100 µM (inactive) | > 100 µM (inactive) | – | > 100 µM (inactive) | – | – | – | – | – | –
Cc1ccc(S(=O)(=O)NNS(C)(=O)=O)cc1 | > 100 µM (inactive) | > 100 µM (inactive) | > 100 µM (inactive) | > 100 µM (inactive) | > 100 µM (inactive) | > 100 µM (inactive) | > 100 µM (inactive) | – | – | > 100 µM (inactive) | > 100 µM (inactive) | – | > 100 µM (inactive) | > 100 µM (inactive) | > 100 µM (inactive) | – | – | – | – | –
CCOC(=O)C(=O)C1C(=O)Nc2ccccc21 (stereo not drawn) | > 100 µM (inactive) | > 100 µM (inactive) | > 100 µM (inactive) | > 100 µM (inactive) | > 100 µM (inactive) | > 100 µM (inactive) | > 100 µM (inactive) | > 100 µM (inactive) | > 100 µM (inactive) | > 100 µM (inactive) | > 100 µM (inactive) | – | – | > 100 µM (inactive) | > 100 µM (inactive) | – | – | – | – | –

— ChEMBL document CHEMBL1201862, “PubChem BioAssay data set” (2004)
